What was measured:
[1] = biological target: T1, recombinant human Meningioma Expressed Antigen 5 (MGEA5), also referred to as O-GlcNAcase (OGA) (Homo sapiens, UniProt O60502); assay: OGA biochemical assay (inhibition of FM-GlcNAc hydrolysis, fluorescence); details: FM-GlcNAc substrate; for IC50: 6 h at room temperature, read-out: Enzymatic hOGA, pIC50 (converted); for Emax: read-out: Enzymatic Emax (%)
T1 construct: Full length OGA enzyme was purchased at OriGene (cat #TP322411); purchased OriGene TP322411
T1 sequence (O60502 1-916): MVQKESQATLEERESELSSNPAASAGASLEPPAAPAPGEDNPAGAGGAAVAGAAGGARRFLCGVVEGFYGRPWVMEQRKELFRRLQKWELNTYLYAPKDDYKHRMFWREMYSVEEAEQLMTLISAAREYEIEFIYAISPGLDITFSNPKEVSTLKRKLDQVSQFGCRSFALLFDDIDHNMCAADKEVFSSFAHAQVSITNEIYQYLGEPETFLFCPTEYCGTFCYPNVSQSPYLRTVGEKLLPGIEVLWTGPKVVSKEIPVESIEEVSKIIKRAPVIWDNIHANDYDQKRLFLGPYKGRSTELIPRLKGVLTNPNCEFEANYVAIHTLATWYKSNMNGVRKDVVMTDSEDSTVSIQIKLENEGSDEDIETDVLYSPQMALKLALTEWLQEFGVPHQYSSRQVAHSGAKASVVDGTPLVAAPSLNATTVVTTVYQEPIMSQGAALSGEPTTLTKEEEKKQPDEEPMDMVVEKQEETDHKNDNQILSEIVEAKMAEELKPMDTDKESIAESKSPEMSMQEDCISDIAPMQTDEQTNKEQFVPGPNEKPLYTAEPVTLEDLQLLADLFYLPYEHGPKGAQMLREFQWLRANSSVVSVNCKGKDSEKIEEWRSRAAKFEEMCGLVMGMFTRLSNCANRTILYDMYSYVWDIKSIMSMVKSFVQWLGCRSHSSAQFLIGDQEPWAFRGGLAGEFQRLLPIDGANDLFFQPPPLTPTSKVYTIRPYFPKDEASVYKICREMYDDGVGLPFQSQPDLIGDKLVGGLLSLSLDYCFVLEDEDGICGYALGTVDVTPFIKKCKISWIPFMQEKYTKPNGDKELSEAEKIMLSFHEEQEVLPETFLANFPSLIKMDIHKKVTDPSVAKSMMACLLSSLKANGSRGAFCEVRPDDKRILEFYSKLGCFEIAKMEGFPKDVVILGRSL
Procedure, shortened: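 Full-length OGA (2 nM) pre-incubated 60 min at room temperature with compound, then FM-GlcNAc (100 uM final) hydrolysed 6 h at room temperature in 200 mM citrate/phosphate pH 7.2 with 0.005% Tween-20. Stopped with carbonate pH 11.0; fluorescein read at ex 485/em 538 nm. IC50 and Hill coefficient from curve fit between no-inhibitor and saturating-standard controls.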

OGA = biological target: T2, OGA (Homo sapiens, UniProt O60502); assay: OGA cellular assay (ICC detection of O-GlcNAcylated proteins in HEK293 cells inducible for P301L mutant human Tau); format: cell-based; details: for Emax: HEK293, HEK293 cells inducible for P301L mutant human Tau; for Emax / Cellular Emax (%): maximum = Thiamet G 200 uM; for EC50 / Cellular Emax (%): HEK293 cells inducible for P301L mutant human Tau; for EC50: 6 hours incubation, read-out: Cellular hOGA, pEC50 (converted)
T2 construct: HEK293 cells inducible for P301L mutant human Tau (isoform 2N4R) were established at Janssen; endogenous in cells; host or cells: HEK293 cells inducible for P301L mutant human Tau (2N4R)
T2 sequence (O60502 1-916): T1 sequence (O60502 1-916)
Procedure, shortened: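 HEK293 cells inducible for P301L Tau (2N4R), seeded in low-glucose medium, treated with compound for 6 h at 0.2% DMSO. O-GlcNAc immunostained with CTD110.6 after PFA fixation; 488 nm intensity imaged, Hoechst nuclei counted for toxicity. IC50 by non-linear regression, 200 uM Thiamet G as maximum.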

SMILES	IC50 [1]	Emax ([1]; maximal effect)	melting point	Emax (OGA)	EC50 (OGA)	Cellular Emax (%) (OGA)	Enzymatic Emax (%) ([1]; maximal effect)
Cc1cc(C[C@H]2CCCN(C(C)c3cnc4[nH]c(C)nc4c3)C2)cc(C)n1 (single isomer, unassigned) [Compound 6a]	1580 nM	89%	180.52 °C	–	–	–	–
Cc1cc([C@H]2CCCN([C@H](C)c3ccc4sc(C)nc4n3)C2)nc(C)n1 (racemic) [Compound 70]	63.1 nM	98%	–	55%	794 nM	–	–
Cc1cc(OC2CCCN(C(C)c3ccc4sc(C)nc4n3)C2)cc(C)n1 (stereo not drawn) [Compound 40]	12.6 nM	99%	–	49%	794 nM	–	–
Cc1cc(C[C@H]2CCCN(Cc3ccc4[nH]c(C)nc4n3)C2)cc(C)n1 [Compound 9]	200 nM	96%	–	59%	631 nM	–	–
Cc1cc(O[C@@H]2CCN(C(C)c3cc4nc(C)sc4cc3F)C2)cc(C)n1 (stereo partly drawn) [Compound 88]	3.16 nM	99%	–	66%	251 nM	–	–
Cc1cc(CO[C@H]2CCCN(C(C)c3ccc4sc(C)nc4n3)C2)cc(C)n1 (stereo partly drawn) [Compound 66]	39.8 nM	100%	–	55%	501 nM	–	–
Cc1cc(NCC2CCCN(C(C)c3ccc4sc(C)nc4n3)C2)cc(C)n1 (stereo not drawn) [Compound 105]	501 nM	94%	–	14%	> 1000 nM	–	–
Cc1cc(C)nc(CO[C@@H]2CCN(C(C)c3ccc4sc(C)nc4n3)C2)c1 (stereo partly drawn) [Compound 80]	2000 nM	85%	–	5%	> 1000 nM	–	–
Cc1cc(CO[C@@H]2CCCN(C(C)c3ccc4sc(C)nc4n3)C2)cc(C)n1 (single isomer, unassigned) [Compound 69]	501 nM	96%	–	-6%	> 1000 nM	–	–
Cc1cc(CN[C@H]2CCCN(C(C)c3ccc4sc(C)nc4n3)C2)cc(C)n1 (stereo partly drawn) [Compound 84]	25.1 nM	98%	–	66%	501 nM	–	–
Cc1cc(C[C@@H]2CCN(C(C)c3nc4nc(C)sc4cc3F)C2)cc(C)n1 (single isomer, unassigned) [Compound 93]	3.16 nM	92%	–	–	39.8 nM	91%	–
Cc1cc(C[C@@H]2CCN(C(C)c3ccc4sc(C)nc4n3)C2)cc(C)n1 (mixture of isomers) [Compound 43]	53.7 nM	103%	–	60%	631 nM	–	–
Cc1cc(C[C@H]2CCCN(C(C)c3ccc4cn(C)nc4n3)C2)cc(C)n1 (mixture of isomers) [Compound 12ab]	25.1 nM	100%	–	71%	251 nM	–	–
COc1cc(C[C@@H]2CCN(C(C)c3ccc4sc(C)nc4n3)C2)cc(C)n1 (single isomer, unassigned) [Compound 97]	6310 nM	56%	–	-2%	> 1000 nM	–	–
Cc1cc(CO[C@H]2CCCN(C(C)c3cc4nc(C)sc4cc3F)C2)cc(C)n1 (single isomer, unassigned) [Compound 100]	1260 nM	92%	–	–	> 1000 nM	−6%	–
Cc1cc(C[C@@H]2CCN(C(C)c3nc4nc(C)sc4cc3F)C2)cc(C)n1 (single isomer, unassigned) [Compound 94]	1580 nM	–	–	–	> 1000 nM	2%	76%

From patent US20210115040A1, “OGA INHIBITOR COMPOUNDS” (Janssen Pharmaceutica NV, priority 2018, published 2021)
